We go through two compounds from patent EP2765189A1, “Recombinant DNA constructs and methods for controlling gene expression” (Monsanto Technology LLC, priority 2004, dated 2006).

Like-named read-outs stand apart in the source and are kept apart here.

Assay [1] concerns the target bacterial lysine riboswitches. Particulars: in vitro, Sudarsan et al. (2003), cited from earlier work.
Assay [2] relates to CP4. Nature of the assay: CP4 expression in stably transformed maize callus carrying a theophylline "off" "trans" riboswitch. The assay is classed as cell-based. Particulars: transformed cells treated with theophylline. The source says: "trans" riboswitches, similarly to the "cis" riboswitches described in Examples […], are useful in regulating transgenes. In a specific example, a transgenic plant including a "trans" riboswitch designed to regulate the glyphosate-resistance transgene CP4 as the target sequence is particularly useful in "trans" riboswitch-controlled applications parallel to that described in Example 23 (glyphosate as a ligand for ligand-activated herbicide resistance, or for control of herbicide resistant volunteers) and Example 24 (glyphosate as a chemical hybridization agent). To illustrate this approach, CP4 expression is suppressed in stably transformed maize callus. A modified transcribable DNA encoding an "off' "trans" riboswitch with theophylline as its ligand (Bayer and Smolke (2005) Nature Biotechnol., 23:337-343) is designed to target CP4 as a target sequence. Transcription of the theophylline riboswitch can be driven either by a pol II promoter (e. g., Figure 27A) or by pol III promoter (e. g., Figure 27B). The transcribable DNA is inserted into a binary vector (Figure 30) and co-transformed into maize callus under nptIII selection, generating stably transformed maize callus lines. CP4 expression is assayed in the transformed cells, where CP4 expression is observed to be suppressed in transformed cells that are treated with theophylline.

Assay [3] relates to LKR/SDH. Nature of the assay: LKR/SDH expression in transformed maize cells carrying a theophylline "off" "trans" riboswitch. The assay is classed as cell-based. Particulars: transformed cells treated with theophylline. As to the method:
Similarly, a "trans" riboswitch is used to control expression of an endogenous target sequence (lysine ketoglutarate reductase/saccharopine dehydrogenase gene, LKR/SDH) in stably transformed maize plants. A modified transcribable DNA encoding an "off' "trans" riboswitch with theophylline as its ligand (Bayer and Smolke (2005) Nature Biotechnol., 23:337-343) is designed to target at least one region of the LKR/SDH sequence, and co-transformed into maize callus. LKR/SDH expression is assayed in the resulting transformed cells, where LKR/SDH expression is observed to be suppressed in transformed cells that are treated with theophylline.

For `NCCCC[C@H](N)C(=O)O` [lysine], the Kd in assay [1] (read-out: Kd) is ~1000 µM; in assay [1] (same value given in ppm) it was ~128 ppm.

`Cn1c(=O)c2[nH]cnc2n(C)c1=O` [theophylline]: the CP4 expression entry in assay [2] is “suppressed”. Also, the LKR/SDH expression result in assay [3] is on record as “suppressed”.
